The record followed here is patent US10087172B2, “Compounds and their methods of use” (AGIOS PHARMACEUTICALS, INC, priority 2012, dated 2018).

In this test the target is T1, glutaminase (GAC) (Homo sapiens, UniProt O94925).
T1 sequence (O94925 55-598 isoform O94925-3 limits assumed): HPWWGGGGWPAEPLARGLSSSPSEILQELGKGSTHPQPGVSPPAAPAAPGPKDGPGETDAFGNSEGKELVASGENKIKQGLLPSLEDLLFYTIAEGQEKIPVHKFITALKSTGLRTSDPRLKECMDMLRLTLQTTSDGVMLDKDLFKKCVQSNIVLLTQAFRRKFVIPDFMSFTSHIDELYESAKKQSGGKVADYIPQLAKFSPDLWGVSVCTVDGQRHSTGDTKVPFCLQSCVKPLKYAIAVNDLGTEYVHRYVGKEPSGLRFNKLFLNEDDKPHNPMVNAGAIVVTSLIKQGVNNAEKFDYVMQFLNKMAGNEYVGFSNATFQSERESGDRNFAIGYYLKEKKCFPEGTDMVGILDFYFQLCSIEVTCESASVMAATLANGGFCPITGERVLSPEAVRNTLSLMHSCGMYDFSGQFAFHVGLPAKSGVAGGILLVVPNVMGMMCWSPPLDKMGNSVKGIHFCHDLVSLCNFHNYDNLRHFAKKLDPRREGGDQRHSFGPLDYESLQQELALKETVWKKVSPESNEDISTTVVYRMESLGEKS
The test is described as follows: Glutaminase (GAC) coupled endpoint enzymatic assay (glutamate dehydrogenase/diaphorase/resazurin, Ex544/Em590). It counts as biochemical. To be noted: inhibition of glutaminase, tested in an assay of Example A or Example B; class symbols A-E. From the text: In certain embodiments, exemplary compounds of Formula I include the compounds described in Table 1 and in the Examples. A compound described herein may be tested for its ability to inhibit glutaminase, e.g., by an assay as described in the Examples. For simplicity, the inhibition activity of these compounds is represented as an IC50 tested in an assay of Example A or Example B in Table 1. […] “N/A” refers to compounds wherein the IC50 is unavailable.
In this example, the enzymatic activity of glutaminase is measured through a coupled endpoint assay. Glutamine and phosphate are supplied to GAC at a concentration equal to Km and AC50, respectively, and GAC concentration is adjusted to give a linear reaction for 60 minutes. The glutamate produced is converted to 2-OG by a kinetic excess of glutamate dehydrogenase. This second step is configured for 2× Km for NAD, since excess NAD is inhibitory. However, a kinetic excess of the third coupling enzyme, diaphorase, recycles NAD from NADH to keep the NAD concentration constant during the timecourse of the assay. Diaphorase, also supplied in kinetic excess, oxidizes NADH produced by GDH back to NAD with the concomitant reduction of rezasurin to the highly fluorescent resorufin. Resorufin in measured after the assay is stopped with SDS by Ex544/Em590. A reduction in the signal indicates inhibition of some component of the coupled enzyme system. Prospective hits are counterscreened against GDH/diaphorase alone to remove hits to the coupling enzyme system in a second assay.
2. Buffers 2× Buffer (300 mM NaCl, 100 mM HEPES pH 8.5, 0.1% BSA, 0.5 mM EDTA, 100 mM sodium phosphate pH 8.5) 5× Substrate Mix (1× Buffer final concentration, with 13 mM glutamine, 100 μM resazurin, 50 μg/ml diaphorase) 1.2× Enzyme Mix (1× Buffer final concentration, with 0.875 μg/ml GAC, 1.56 mM NAD, 6.25 units/ml GDH) Stop Mix (6% SDS in ddH2O) Reaction Procedure 1. Add 1 μl compound in 100% DMSO 2. Add 40 μl of Enzyme Mix and incubate for 60 minute at room temperature 3. Add 10 μl of Substrate Mix to start reaction 4. Stop reaction with 25 μl of 6% SDS and read Ex544 Em 590
For orientation: Resazurin is reduced to fluorescent resorufin, in cell work by metabolically active cells.
`O=C(Nc1nnc([C@H]2CCC[C@H](c3nnc(NC(=O)C4CCCC4)s3)C2)s1)C1CCCC1` [Compound 62, N,N′-(5,5′-((1S,3S)-cyclohexane-1,3-diyl)bis(1,3,4-thiadiazole-5,2-diyl))dicyclopentanecarboxamide] displayed an IC50 of 1000 to 2000 nM.

In the case of `O=C(Cc1cccc(OC(F)(F)F)c1)Nc1nnc([C@H]2CCC[C@H](c3nnc(NC(=O)C(CO)c4ccccc4)s3)C2)s1` (stereo partly drawn) [Compound 381], the IC50 was below 100 nM. As to `O=C(Nc1nnc([C@H]2CCC[C@H](c3nnc(NC(=O)[C@@H](O)c4ccccc4)s3)C2)s1)[C@@H](O)c1ccccc1` [Compound 371, (2R,2′S)—N,N′-(5,5′-((1S,3S)-cyclohexane-1,3-diyl)bis(1,3,4-thiadiazole-5,2-diyl))bis(2-hydroxy-2-phenylacetamide)], the IC50 was below 100 nM.

Consider `CC(=O)N(C)c1cccc(CC(=O)Nc2nnc([C@H]3CCC[C@H](c4nnc(NC(=O)Cc5cccc(N(C)C(C)=O)n5)s4)C3)s2)n1` [Compound 385, N,N′-(5,5′-((1S,3S)-cyclohexane-1,3-diyl)bis(1,3,4-thiadiazole-5,2-diyl))bis(2-(6-(N-methylacetamido)pyridin-2-yl)acetamide)], for which the IC50 was below 100 nM. `O=C(Cc1cccc(N2CC(F)(F)C2)n1)Nc1nnc([C@H]2CCC[C@H](c3nnc(NC(=O)[C@@H](O)c4ccccc4)s3)C2)s1` [Compound 387, (S)—N-(5-((1S,3S)-3-(5-(2-(6-(3,3-difluoroazetidin-1-yl)pyridin-2-yl)acetamido)-1,3,4-thiadiazol-2-yl)cyclohexyl)-1,3,4-thiadiazol-2-yl)-2-hydroxy-2-phenylacetamide] gave an IC50 below 100 nM. With `COc1ccccc1CC(=O)Nc1nnc([C@@H]2CC[C@@H](c3nnc(NC(=O)Cc4ccccc4OC)s3)C2)s1` (stereo in doubt) [Compound 291, N,N′-(5,5′-((1S,3S)-cyclopentane-1,3-diyl)bis(1,3,4-thiadiazole-5,2-diyl))bis(2-(2-methoxyphenyl)acetamide)], the IC50 is below 100 nM. The figure for `O=C(Cc1ccc(F)cc1)Nc1nnc([C@H]2CCC[C@H](c3nnc(NC(=O)Cc4ccc(F)cc4)s3)C2)s1` [Compound 88, N,N′-(5,5′-((1S,3S)-cyclohexane-1,3-diyl)bis(1,3,4-thiadiazole-5,2-diyl))bis(2-(4-fluorophenyl)acetamide)] is 100 to 500 nM. In the case of `O=C(Cc1ncccn1)Nc1nnc([C@H]2CCC[C@H](c3nnc(NC(=O)Cc4ncccn4)s3)C2)s1` [Compound 27, N,N′-(5,5′-((1S,3S)-cyclohexane-1,3-diyl)bis(1,3,4-thiadiazole-5,2-diyl))bis(2-(pyrimidin-2-yl)acetamide)] it was below 100 nM; in that of `O=C(Cc1ccc2c(c1)OCO2)Nc1nnc([C@H]2CCC[C@H](c3nnc(NC(=O)Cc4ccc5c(c4)OCO5)s3)C2)s1` [Cmpd 86], below 100 nM. Consider `O=C(Cc1cccc(OC(F)(F)F)c1)Nc1nnc([C@H]2CCC[C@H](c3nnc(NC(=O)Cc4cccc(N5CC(F)(F)C5)n4)s3)C2)s1` [Compound 388, 2-(6-(3,3-difluoroazetidin-1-yl)pyridin-2-yl)-N-(5-((1S,3S)-3-(5-(2-(3-(trifluoromethoxy)phenyl)acetamido)-1,3,4-thiadiazol-2-yl)cyclohexyl)-1,3,4-thiadiazol-2-yl)acetamide], for which the IC50 is below 100 nM.

In turn, `O=C(CCC(F)(F)F)Nc1nnc([C@H]2CCC[C@H](c3nnc(NC(=O)CCC(F)(F)F)s3)C2)s1` [Compound 47, N,N′-(5,5′-((1S,3S)-cyclohexane-1,3-diyl)bis(1,3,4-thiadiazole-5,2-diyl))bis(4,4,4-trifluorobutanamide)] registered a half-inhibitory concentration (IC50) of 1000 to 2000 nM. With `O=C(Cc1cccc(OC(F)(F)F)c1)Nc1nnc([C@H]2CCC[C@H](c3nnc(NC(=O)[C@H](O)c4ccccc4)s3)C2)s1` [Compound 365, (R)-2-hydroxy-2-phenyl-N-(5-((1S,3S)-3-(5-(2-(3-(trifluoromethoxy)phenyl)acetamido)-1,3,4-thiadiazol-2-yl)cyclohexyl)-1,3,4-thiadiazol-2-yl)acetamide], the IC50 is below 100 nM. Compound `N#Cc1ccc(CC(=O)Nc2nnc([C@H]3CCC[C@H](c4nnc(NC(=O)Cc5ccc(C#N)cn5)s4)C3)s2)nc1` (single isomer, unassigned) [Compound 101] returned an IC50 below 100 nM. Turning to `N#Cc1ccc(CC(=O)Nc2nnc([C@H]3CCC[C@H](c4nnc(NC(=O)Cc5ccc(C#N)cc5)s4)C3)s2)cc1` [Compound 74, N,N′-(5,5′-((1S,3S)-cyclohexane-1,3-diyl)bis(1,3,4-thiadiazole-5,2-diyl))bis(2-(4-cyanophenyl)acetamide)], the IC50 was 100 to 500 nM. `O=C(Cc1cccc(Cl)c1)Nc1nnc([C@H]2CCC[C@H](c3nnc(NC(=O)Cc4cccc(Cl)c4)s3)C2)s1` [Compound 43, N,N′-(5,5′-((1S,3S)-cyclohexane-1,3-diyl)bis(1,3,4-thiadiazole-5,2-diyl))bis(2-(3-chlorophenyl)acetamide)] returned an IC50 of 100 to 500 nM. The compound `O=C(Cc1cccc(OC(F)(F)F)c1)Nc1nnc([C@H]2CCC[C@H](c3nnc(NC(=O)C(CO)c4ccccc4)s3)C2)s1` (stereo partly drawn) [Compound 389, 3-hydroxy-2-phenyl-N-(5-((1S,3S)-3-(5-(2-(3-(trifluoromethoxy)phenyl)acetamido)-1,3,4-thiadiazol-2-yl)cyclohexyl)-1,3,4-thiadiazol-2-yl)propanamide] had an IC50 below 100 nM. In the case of `O=C(Cc1cc(OC(F)F)ccn1)Nc1nnc([C@H]2CCC[C@H](c3nnc(NC(=O)Cc4cc(OC(F)F)ccn4)s3)C2)s1` [Compound 356, N,N′-(5,5′-((1S,3S)-cyclohexane-1,3-diyl)bis(1,3,4-thiadiazole-5,2-diyl))bis(2-(4-(difluoromethoxy)pyridin-2-yl)acetamide)] it was below 100 nM; in that of `N#Cc1ccccc1CC(=O)Nc1nnc([C@H]2CCC[C@H](c3nnc(NC(=O)Cc4ccccc4C#N)s3)C2)s1` [Compound 72, N,N′-(5,5′-((1S,3S)-cyclohexane-1,3-diyl)bis(1,3,4-thiadiazole-5,2-diyl))bis(2-(2-cyanophenyl)acetamide)], below 100 nM; in that of `O=C(Nc1nnc([C@H]2CCC[C@H](c3nnc(NC(=O)C4CCOC4)s3)C2)s1)C1CCOC1` (stereo partly drawn) [Compound 48, N,N′-(5,5′-((1S,3S)-cyclohexane-1,3-diyl)bis(1,3,4-thiadiazole-5,2-diyl))bis(tetrahydrofuran-3-carboxamide)], 500 to 1000 nM. For `O=C(Nc1nnc([C@H]2CCC[C@H](c3nnc(NC(=O)c4ccccc4)s3)C2)s1)c1ccccc1` [Compound 39, N,N′-(5,5′-((1S,3S)-cyclohexane-1,3-diyl)bis(1,3,4-thiadiazole-5,2-diyl))dibenzamide], the IC50 lay in the range of 1000 to 2000 nM. In the case of `N#Cc1cccc(CC(=O)Nc2nnc([C@H]3CCC[C@H](c4nnc(NC(=O)Cc5cccc(C#N)c5)s4)C3)s2)c1` (single isomer, unassigned) [Compound 73] it was below 100 nM; in that of `CS(=O)(=O)c1cccc(CC(=O)Nc2nnc([C@H]3CCC[C@H](c4nnc(NC(=O)Cc5cccc(S(C)(=O)=O)c5)s4)C3)s2)c1` [Compound 54, N,N′-(5,5′-((1S,3S)-cyclohexane-1,3-diyl)bis(1,3,4-thiadiazole-5,2-diyl))bis(2-(3-(methylsulfonyl)phenyl)acetamide)], below 100 nM.

Take `O=C(Cc1cccc(N2CC(F)(F)C2)n1)Nc1nnc([C@H]2CC[C@H](c3nnc(NC(=O)[C@H](O)c4ccccc4)s3)C2)s1` [Compound 378, (R)—N-(5-((1S,3S)-3-(5-(2-(6-(3,3-difluoroazetidin-1-yl)pyridin-2-yl)acetamido)-1,3,4-thiadiazol-2-yl)cyclopentyl)-1,3,4-thiadiazol-2-yl)-2-hydroxy-2-phenylacetamide]: the IC50 is below 100 nM.

In turn, `O=C(Cc1cccc(N2CC(F)C2)c1)Nc1nnc([C@H]2CCC[C@H](c3nnc(NC(=O)Cc4cccc(N5CC(F)C5)c4)s3)C2)s1` [Compound 348] returned an IC50 below 100 nM.

By IC50 is commonly meant the concentration that inhibits the measured activity by half. A higher IC50 goes with weaker potency.
